The target in one series is T1, H^+ /K^+ -ATPase (Sus scrofa, UniProt P19156).
T1 construct: a microsome fraction prepared from porcine gastric mucosa was used as a standard enzyme; from tissue; host or cells: porcine gastric mucosa, microsome fraction
Briefly: Inhibitory Action on H^+ /K^+ -ATPase Activity. The format is biochemical. To be noted: microsome fraction from porcine gastric mucosa, pH7.4, 37° C., 30 min preincubation, 15 min reaction. Here is the method: Inhibitory Action on H^+ /K^+ -ATPase Activity
According to the method of Hongo et al. [The Japanese Journal of Pharmacology, 52, p295, (1990)], a microsome fraction prepared from porcine gastric mucosa was used as a standard enzyme. The standard enzyme (10-20lig protein) and the test compound (0.1-100 μM) dissolved in dimethylsulfoxide was incubated at 37° C. for 30 minutes in the 50 mM Tris-acetate buffer (pH7.4, containing 2 mM magnesium chloride, 5 mM potassium chloride). The enzyme reaction was started by adding adenosinetriphosphate (ATP). Tris at the final concentration of 2 mM, and the reaction was kept at 37° C. for 15 minutes. The reaction was stopped by adding chilled 10% trichloroacetic acid. Inorganic phosphate released during the reaction was calorimetrically determined according to the method of Fiske-Subbarow [The Journal of Biological Chemistry, 66, p375, (1925)]. H^+ /K^+ -ATPase activity was determined by the difference of the enzyme activities under the conditions with or without potassium chloride. The inhibitory activities of test compounds were determined as the 50% inhibitory concentration (IC50 value) from reaction-concentration curve, and the results are shown in Table 3.

In series [1] the test system is gastric acid secretion. Briefly: Inhibition of Gastric Acid Secretion Observed Under Acute Fistula Method. The format is in vivo, male Wistar rats. To be noted: Rattus norvegicus; 30 mg/kg intraduodenally, rats, histamine 10 mg/kg s.c., cumulative 2 h. Here is the method:
Inhibition of Gastric Acid Secretion Observed Under Acute Fistula Method
Male Wistar rats (6-8 weeks) fasted for 24 hours (water ad libitum) were used. The rats were anesthetized by intraperitoneal administration of 1.25 g/kg of urethane. The abdomen was incised, and acute gastric fistula was connected to the stomach. Two ml of saline was injected into the stomach, and recovered every 20 minutes. The gastric acid secretion was determined by titrating of gastric juice by 150 mM sodium hydroxide up to pH7.0 using an autotitrator. Test compounds (30 mg/kg) suspended in a 0.5% aqueous sodium carboxymethylcellulose (CMC-Na) solution were administered intraduodenally. After 1 hour, gastric acid secretion was stimulated by subcutaneous administration of histamine dihydrochloride dissolved in saline (10 mg/kg). Inhibition (%) of gastric acid secretion was determined by calculating cumulative amount of the acid secretion during two hours after histamine stimulation and then comparing the cumulative amount with that in the control group. In the control group, only 0.5% aqueous CMC-Na solution was administered intraduodenally.

The subject of series [2] is gastric acid secretion. Kind of series: Inhibition of Gastric Acid Secretion Observed Under Stomach Perfusion Method. The format is in vivo, male Sprague Dawrey rats. To be noted: Rattus norvegicus, ip, 1 h; rats, histamine i.v. 8 mg/kg/hr, inhibition one hour after administration (1-10 mg/kg, "intrapenetorially"); read-out: ID50 (dose showing 50% inhibition of acid secretion). Here is the method:
Inhibition of Gastric Acid Secretion Observed Under Stomach Perfusion Method
Male Sprague Dawrey rats (6-7weeks) fasted for 24 hours were used (water ad libitum). The rats were anesthetized by intraperitoneal administration of 1.25 g/kg of urethane. The abdomen was incised, and gastral cavity was perfused with saline during experiment. The perfusate was titrated by 10 mM sodium hydroxide up to pH5.5 using an autotitrator in accordance with Stat-method. Gastric acid secretion was stimulated by intravenous administration of histamine dihydrochloride (8 mg/kg/hr). Two hours after histamine stimulation, a test compound 1-10 mg/kg) was administered intrapenetorially. The test compound was mixed with small amount of polysorbate-80, and the mixture was suspended in saline. The test compound was evaluated using ID50 (dose showing 50% inhibition of acid secretion) which was calculated based on inhibition of the acid secretion observed one hour after administration of the compound.

The subject of series [3] is ethanol-induced gastric lesion. Briefly: Inhibition of Ethanol-induced Gastric Lesion (Protection of gastric mucosa). The format is in vivo, male Wister rats. To be noted: Rattus norvegicus, po, 1 h; 30 mg/kg orally, rats, ethanol 0.5 ml/100 g. Here is the method: Inhibition of Ethanol-induced Gastric Lesion (Protection of gastric mucosa)
Male Wister rats (6-7weeks, 5 rats per group) fasted for 24 hours were used (water ad libitum). Test compound (30 mg/kg) suspended in 0.5% aqueous CMC-Na solution was orally administered. In the control group, only 0.5% aqueous CMC-Na solution was administered. Thirty minutes after administration, 0.5 ml/100 g body weight of ethanol was orally administered to cause gastric lesion. After one hour, the rat was killed by excessive amount of ether, and the stomach was removed and fixed with 2% formalin. After fixation, the stomach was dissected along the large curvature. The size of each of mucosal lesions was measured under dissecting microscope, and the total size of the lesions per rat was determined and used as ulcer index (mm). Inhibition of gastric lesion was determined by comparing the ulcer index in the control group and test group.

Details of series [4]: species or system male ICR mice. Conditions: mouse, in vivo, po, 10080 min. Here is the method:
Male ICR mice (6 weeks, 3 mice per group) fasted for 16 hours were used ad libitum). A test compound suspended in 5% aqueous gum arabic solution was orally administered. After administration, mortality of the animals observed during 7 days and approximate lethal dose was determined.

T1 sequence (P19156 2-1034 limits assumed): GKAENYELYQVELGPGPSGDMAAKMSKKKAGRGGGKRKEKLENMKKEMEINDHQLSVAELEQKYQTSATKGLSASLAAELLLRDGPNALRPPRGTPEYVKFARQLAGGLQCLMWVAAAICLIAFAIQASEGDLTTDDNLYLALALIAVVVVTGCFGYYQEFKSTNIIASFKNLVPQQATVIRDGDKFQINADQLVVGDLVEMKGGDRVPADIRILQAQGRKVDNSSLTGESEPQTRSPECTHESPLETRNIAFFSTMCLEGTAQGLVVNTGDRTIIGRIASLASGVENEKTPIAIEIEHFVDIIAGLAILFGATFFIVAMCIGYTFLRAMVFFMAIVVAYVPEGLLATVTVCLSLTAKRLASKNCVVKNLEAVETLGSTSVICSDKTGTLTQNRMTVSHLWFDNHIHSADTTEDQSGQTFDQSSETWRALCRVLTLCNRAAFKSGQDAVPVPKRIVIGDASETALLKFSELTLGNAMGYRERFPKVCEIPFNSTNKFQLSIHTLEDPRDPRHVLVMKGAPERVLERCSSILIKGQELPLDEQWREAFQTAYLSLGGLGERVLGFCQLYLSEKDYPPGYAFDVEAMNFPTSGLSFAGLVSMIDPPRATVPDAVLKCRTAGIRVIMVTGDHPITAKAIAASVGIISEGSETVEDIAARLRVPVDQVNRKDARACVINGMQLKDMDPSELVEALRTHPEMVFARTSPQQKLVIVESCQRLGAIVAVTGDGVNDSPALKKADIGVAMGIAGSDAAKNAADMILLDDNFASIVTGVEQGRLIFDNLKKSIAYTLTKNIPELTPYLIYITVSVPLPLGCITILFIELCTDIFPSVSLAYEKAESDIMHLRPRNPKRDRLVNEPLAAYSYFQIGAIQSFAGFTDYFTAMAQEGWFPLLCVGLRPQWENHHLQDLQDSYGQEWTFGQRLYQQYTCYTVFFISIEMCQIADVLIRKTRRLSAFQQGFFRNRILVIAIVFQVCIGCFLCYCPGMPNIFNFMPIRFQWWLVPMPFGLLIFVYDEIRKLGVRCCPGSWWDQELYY
T1 sequence (P18434 whole entry partner): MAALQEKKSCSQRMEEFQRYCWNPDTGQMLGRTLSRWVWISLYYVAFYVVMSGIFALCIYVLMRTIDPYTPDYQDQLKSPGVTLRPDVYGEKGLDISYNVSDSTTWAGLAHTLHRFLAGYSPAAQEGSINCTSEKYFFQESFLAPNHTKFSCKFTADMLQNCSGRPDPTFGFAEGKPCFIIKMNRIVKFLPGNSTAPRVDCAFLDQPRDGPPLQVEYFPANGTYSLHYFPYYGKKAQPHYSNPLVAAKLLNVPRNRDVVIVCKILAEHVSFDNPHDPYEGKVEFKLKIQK

Broadly, the IC50 is the concentration that gives 50% inhibition. Read a high IC50 as a need for much substance. For orientation: inhibition in vivo means the relative decrease from the control value, in per cent. On H^+ /K^+ -ATPase, `Cc1ccccc1-c1nc2c3ccccc3ccn2c1N` [Compound 3, 3-Amino-2-(2-methylphenyl)imidazo[2,1-a]isoquinoline] displayed an IC50 of 26 µM. Besides, the inhibition in vivo at 30 mg/kg in the series with gastric acid secretion [1] came to 82.2%; in series [3], 73.5%. Besides, in the series with gastric acid secretion [2], the ED50 is 3.4 mg/kg. Besides, the Approximate lethal dose in series [4] was > 2,000 mg/kg.
As to `Cc1ccccc1-c1nc2c3cc(Cl)ccc3ccn2c1N` [Compound 6, 3-Amino-9-chloro-2-(2-methylphenyl)imidazo[2,1-a]isoquinoline], the IC50 against H^+ /K^+ -ATPase came to 12 µM. The inhibition in vivo at 30 mg/kg with gastric acid secretion [1] is 79.6%. In addition, the ED50 with gastric acid secretion [2] turned out to be 5 mg/kg. For the same compound, the Approximate lethal dose in series [4] is > 2,000 mg/kg.
For the compound `Cc1ccccc1-c1nc2c3ccccc3cc(C)n2c1N` [Compound 9, 3-Amino-5-methyl-2-(2-methylphenyl)imidazo[2,1-a]isoquinoline], the IC50 at H^+ /K^+ -ATPase turned out to be 34 µM. The compound also returned an inhibition in vivo at 30 mg/kg in the series with gastric acid secretion [1] of 90.7%. For the same compound, the ED50 with gastric acid secretion [2] turned out to be 3.1 mg/kg. In series [4], the Approximate lethal dose is > 2,000 mg/kg.
Regarding `COc1ccc2ccn3c(N)c(-c4ccccc4C)nc3c2c1` [Compound 26, 3-Amino-9-methoxy-2-(2-methylphenyl)imidazo[2,1-a]isoquinoline], the IC50 on H^+ /K^+ -ATPase stood at 32 µM. 30 mg/kg produced 90.8% inhibition in vivo in the series with gastric acid secretion [1]. Further, the ED50 in the series with gastric acid secretion [2] turned out to be 2.8 mg/kg. In series [4], the Approximate lethal dose is > 2,000 mg/kg.
`CSc1cccc2c1ccn1c(N)c(-c3ccccc3C)nc21` [Compound 46, 3-Amino-2-(2-methylphenyl)-7-(methylthio)imidazo[2,1-a]isoquinoline]: the IC50 on H^+ /K^+ -ATPase was 8.4 µM. For the same compound, the inhibition in vivo at 30 mg/kg with gastric acid secretion [1] amounted to 73.8%.
As for `COc1ccc2ccn3c(N)c(-c4sccc4C)nc3c2c1` [Compound 75, 3-Amino-9-methoxy-2-(3-methyl-2-thienyl)imidazo[2,1-a]isoquinoline], the midpoint of inhibition at H^+ /K^+ -ATPase, the IC50, lay at 6.4 µM. This compound also displayed an inhibition in vivo at 30 mg/kg with gastric acid secretion [1] of 73.3%.
At H^+ /K^+ -ATPase, `CCNc1c(-c2ccccc2C)nc2c3ccccc3c(OC)cn12` [Compound 166, 3-Ethylamino-6-methoxy-2-(2-methylphenyl)imidazo[2,1-a]isoquinoline] displayed an IC50 of 23 µM. Further, the inhibition in vivo at 30 mg/kg with gastric acid secretion [1] worked out at 54.9%; in series [3], 49.7%. Also, the Approximate lethal dose in series [4] is > 2,000 mg/kg.
Regarding `CCNc1c(-c2sccc2C)nc2c3ccccc3c(OC)cn12` [Compound 176, 3-Ethylamino-6-methoxy-2-(3-methyl-2-thienyl)imidazo[2,1-a]isoquinoline], inhibition at H^+ /K^+ -ATPase was half-maximal at 9 µM (IC50). Also, in the series with gastric acid secretion [1], the inhibition in vivo at 30 mg/kg is 49.9%. For the same compound, the Approximate lethal dose in series [4] is reported as > 2,000 mg/kg.
In the case of `CCNc1c(-c2csc(Cl)c2C)nc2c3ccccc3ccn12` [Compound 179, 2-(2-Chloro-3-methyl-4-thienyl)-3-ethylaminoimidazo[2,1-a]isoquinoline], on H^+ /K^+ -ATPase, the midpoint of inhibition, the IC50, lay at 4.8 µM. The inhibition in vivo at 30 mg/kg in the series on gastric acid secretion [1] came to 52.8%. Further, the Approximate lethal dose in series [4] was > 2,000 mg/kg.
Regarding `CCCNc1c(-c2ccccc2C)nc2c3ccccc3c(OC)cn12` [Compound 182, 6-Methoxy-2-(2-methylphenyl)-3-propylaminoimidazo[2,1-a]isoquinoline], at H^+ /K^+ -ATPase, 11 µM corresponded to half-maximal inhibition (IC50). In the series on gastric acid secretion [1], this compound had an inhibition in vivo at 30 mg/kg of 58.4%. The Approximate lethal dose in series [4] is given as > 2,000 mg/kg.
At H^+ /K^+ -ATPase, `Cc1ccccc1-c1nc2c3ccccc3ccn2c1NCCC(C)C` [Compound 188, 3-Isopentylamino-2-(2-methylphenyl)imidazo[2,1-a]isoquinoline] had an IC50 of 10.5 µM. The same compound gave an inhibition in vivo at 30 mg/kg in the series on gastric acid secretion [1] of 79.1%. Moreover, in series [4], the Approximate lethal dose is on record as > 2,000 mg/kg.
Regarding `CCN(CCOC)c1c(-c2ccccc2C)nc2c3ccccc3ccn12` [Compound 205, 3-[N-Ethyl-N-(2-methoxyethyl)amino]-2-(2-methylphenyl)imidazo[2,1-a]isoquinoline], the results for the inhibition in vivo at 30 mg/kg (in the series on gastric acid secretion [1]; in series [3]) were 86% and 98.6%, respectively. For the same compound, in series [4], the Approximate lethal dose is given as > 2,000 mg/kg.
Consider `CCCN(CC)c1c(-c2ccccc2C)nc2c3ccccc3ccn12` [Compound 207, 3-(N-Ethyl-N-propylamino)-2-(2-methylphenyl)imidazo[2,1-a]isoquinoline], for which, at H^+ /K^+ -ATPase, half-maximal inhibition (IC50) was put at 9.3 µM. In the series with gastric acid secretion [1], the inhibition in vivo at 30 mg/kg was determined as 67.4%.
Consider `CCN(CCCSC)c1c(-c2ccccc2C)nc2c3ccccc3ccn12` [Compound 214, 3-[N-Ethyl-N-(3-methylthiopropyl)amino]-^2-(2-methylphenyl)imidazo[2,1-a]isoquinoline], for which half-maximal inhibition against H^+ /K^+ -ATPase (IC50) required 7 µM. The compound also returned an inhibition in vivo at 30 mg/kg in the series on gastric acid secretion [1] of 56%.
In the case of `CCc1ccccc1-c1nc2c3ccccc3ccn2c1N(CC)CCC(C)C` [Compound 216, 3-(N-Ethyl-N-isopentylamino)-2-(2-ethylphenyl)imidazo[2,1-a]isoquinoline], at H^+ /K^+ -ATPase, the IC50 amounted to 2.5 µM. In series [3], this compound showed an inhibition in vivo at 30 mg/kg of 81.7%. In addition, the Approximate lethal dose in series [4] is > 2,000 mg/kg.
For `C=CCNc1c(-c2ccccc2C)nc2c3ccccc3ccn12` [Compound 221, 3-allylamino-2-(2-methylphenyl)imidazo[2,1-a]isoquinoline], the inhibition in vivo at 30 mg/kg with gastric acid secretion [1] is 66.7%; in series [3], 73.7%. For the same compound, the Approximate lethal dose in series [4] is on record as > 2,000 mg/kg.
At H^+ /K^+ -ATPase, `C=CCN(CC)c1c(-c2ccccc2C)nc2c3ccccc3ccn12` [Compound 222, 3-(N-Allyl-N-ethylamino)-2-(2-methylphenyl)imidazo[2,1-a]isoquinoline] had an IC50 of 2 µM. The inhibition in vivo at 30 mg/kg was determined as 72.6% with gastric acid secretion [1] and 98.8% in series [3]. Besides, the Approximate lethal dose in series [4] is > 2,000 mg/kg.
On H^+ /K^+ -ATPase, `C=CCN(CC=C)c1c(-c2ccccc2C)nc2c3ccccc3ccn12` [Compound 223, 3-diallylamino-2-(2-methylphenyl)imidazo[2,1-a]isoquinoline] gave an IC50 of 4.5 µM. In the series on gastric acid secretion [1], this compound yielded an inhibition in vivo at 30 mg/kg of 60.1%.
In turn, `Cc1ccccc1-c1nc2c3ccsc3cc(C)n2c1N` [Compound 236, 3-Amino-5-methyl-2-(2-methylphenyl)imidazo[1,2-a]thieno[3,2-c]pyridine] came in with an IC50 against H^+ /K^+ -ATPase of 4.7 µM. Besides, the ED50 with gastric acid secretion [2] came out at 1.4 mg/kg. The same compound yielded an inhibition in vivo at 30 mg/kg in series [3] of 91.5%. Further, in series [4], the Approximate lethal dose is > 2,000 mg/kg.
The compound `Cc1sccc1-c1nc2c3ccsc3ccn2c1N` [Compound 254, 3-Amino-2-(2-methyl-3-thienyl)imidazo[1,2-a]thieno[3,2-c]pyridine] yielded an IC50 on H^+ /K^+ -ATPase of 4.5 µM. In the series on gastric acid secretion [2], the ED50 was 1.1 mg/kg. Also, 30 mg/kg produced 92.4% inhibition in vivo in series [3].
With `Cc1cc(-c2nc3c4ccsc4ccn3c2N)c(C)o1` [Compound 271, 3-Amino-2-(2,5-dimethyl-3-furyl)imidazo[1,2-a]thieno[3,2-c]pyridine], on H^+ /K^+ -ATPase, the IC50 stood at 5.2 µM. In the series with gastric acid secretion [2], the ED50 is 2.4 mg/kg. This compound displayed an inhibition in vivo at 30 mg/kg in series [3] of 99.5%.

Values taken from patent publication US6020342A, “Fused imidazo[1,2-A]pyridines” (Shinnippon Pharmaceutical, Inc., priority 1995, dated 2000).
